{"source": "patent EP0036357A1", "about": "“Antalgic and antiagregant cetonic derivatives of 5,6-diaryl-1,2,4-triazines, usable in the treatment of migraine” (PIERRE FABRE S.A., priority 1980, dated 1981)", "key": {"[1]": {"assay": "Acute toxicity (LD50) in mice, Miller and Tainter method", "details": "in vivo, mouse about 20 g", "text": "L'étude de la toxicité a été effectuée chez la souris conventionnelle pesant environ 20 grammes.\nLes substances ont été administrées par voie orale et intrapéritonéale. Les doses létales 50 sont exprimées en mg/kg et ont été calculées selon la méthode de MILLER et TAINTER, Proc. Soc. Exper. Biol. Med. 1944, 57, 261.\nA titre d'exemple dans le tableau ci-dessous figurent quelques valeurs de doses toxiques provoquant 50 % de mortalité."}, "[2]": {"system": "contorsions à la phényl benzoquinone", "assay": "Phenylbenzoquinone writhing test (Siegmund), analgesic activity", "type": "in vivo, souris", "details": "po, 0.5 h; dose giving 50 % decrease of writhes; per os, mouse, 30 minutes before i.p. phenylbenzoquinone; read-out: DE50 (the source's name)", "method": "L'activité sur le test des contorsions à la phényl benzoquinone (selon SIEGMUND et Coll. - J. Pharm. Exptl. Ther. 1957, 119, 453) […] administration du produit per os; la dose est exprimée en mg/kg chez la souris 30 minutes avant l'injection […] sont exprimés en pourcentage de variation du nombre de contorsions; pour les molécules les plus actives, nous avons déterminé la dose qui provoque 50 % de diminution des contorsions DE50. Dans le tableau ci-dessous nous avons répertorié les molécules dont l'activité est supérieure ou é[…] (DE50 ≃ 40)."}, "[3]": {"assay": "Tolerance on repeated administration", "type": "in vivo"}, "[4]": {"assay": "Qualitative solubility in solvents", "type": "physicochemical", "details": "for Insoluble dans: solvents in which the compound is insoluble; for Soluble dans: solvents in which the compound is soluble"}, "[5]": {"details": "ip, intraperitoneal route, read-out: DL50 voie I.P."}, "[6]": {"details": "oral route, read-out: DL50 voie orale"}}, "note": "Read-outs that look alike come from different tables or passages of the source."}
{"smiles": "COc1ccc(-c2nc(=O)n(CC(C)=O)nc2-c2ccc(OC)cc2)cc1", "note": "[ST 753, Oxo-3 acétonyl-2 di(paraméthoxyphényl) 5-6 as triazine]", "values": [{"measurement": "LD50", "setting": "[1]; [5]", "result": "> 500", "unit": "mg/kg"}, {"measurement": "LD50", "setting": "[1]; [6]", "result": "> 1500", "unit": "mg/kg"}, {"measurement": "ED50", "setting": "[2]", "result": 15, "unit": "mg/kg"}, {"measurement": "tolérées par administration répétée", "setting": "[3]", "result": "les mieux tolérées"}, {"measurement": "Insoluble dans", "setting": "[4]", "result": "l'eau, les acides et bases dilués, l'éther"}, {"measurement": "Soluble dans", "setting": "[4]", "result": "l'éthanol, le benzène, le chlorure de méthylène et le chloroforme"}]}
{"smiles": "COc1ccc(-c2nc(=O)n(C(C)C(C)=O)nc2-c2ccc(OC)cc2)cc1", "note": "(stereo not drawn) [ST 765, Oxo-3 α méthylacétonyl-2 di (paraméthoxyphényl) 5-6 as triazine]", "values": [{"measurement": "LD50", "setting": "[1]; [5]", "result": "> 1000", "unit": "mg/kg"}, {"measurement": "LD50", "setting": "[1]; [6]", "result": "> 2000", "unit": "mg/kg"}, {"measurement": "ED50", "setting": "[2]", "result": 10, "unit": "mg/kg"}, {"measurement": "tolérées par administration répétée", "setting": "[3]", "result": "les mieux tolérées"}, {"measurement": "Insoluble dans", "setting": "[4]", "result": "l'eau, les acides et bases dilués, et l'éther"}, {"measurement": "Soluble dans", "setting": "[4]", "result": "l'éthanol, le benzène, le chlorure de méthylène et le chloroforme"}]}
{"smiles": "CC(=O)C(C)n1nc(-c2ccc(N(C)C)cc2)c(-c2ccc(N(C)C)cc2)nc1=O", "note": "(stereo not shown) [ST 802, Oxo-3αméthylacétonyl-2 di(paradiméthylaminophényl) 5-6 as triazine]", "values": [{"measurement": "LD50", "setting": "[1]; [6]", "result": "> 1500", "unit": "mg/kg"}, {"measurement": "ED50", "setting": "[2]", "result": 5, "unit": "mg/kg"}, {"measurement": "Insoluble dans", "setting": "[4]", "result": "l'eau, les bases diluées et l'éther"}, {"measurement": "Soluble dans", "setting": "[4]", "result": "les acides dilués aqueux, l'éthanol, le benzène, le chlorure de méthylène et le chloroforme"}]}
{"smiles": "CN(C)c1ccc(-c2nc(=O)n(CC(=O)c3ccccc3)nc2-c2ccc(N(C)C)cc2)cc1", "note": "[ST 813, Oxo-3 acétophényl-2 di (paradiméthylaminophényl) 5-6 as triazine]", "values": [{"measurement": "LD50", "setting": "[1]; [5]", "result": "~750", "unit": "mg/kg"}, {"measurement": "LD50", "setting": "[1]; [6]", "result": "> 1000", "unit": "mg/kg"}, {"measurement": "Insoluble dans", "setting": "[4]", "result": "l'eau, les bases diluées, le benzène, l'éthanol et l'éther"}, {"measurement": "Soluble dans", "setting": "[4]", "result": "les acides dilués aqueux, le chlorure de méthylène et le chloroforme"}]}
{"smiles": "COc1ccc(-c2nc(=O)n(CC(=O)c3ccc(O)c(O)c3)nc2-c2ccc(OC)cc2)cc1", "note": "[ST 827, Oxo-3 (3,4 dihydroxyphénacyl)-2 di(paraméthoxyphényl) 5-6 as triazine]", "values": [{"measurement": "LD50", "setting": "[1]; [6]", "result": "> 1000", "unit": "mg/kg"}, {"measurement": "Insoluble dans", "setting": "[4]", "result": "l'eau, les acides dilués, le benzène, le chlorure de méthylène et l'éther"}, {"measurement": "Soluble dans", "setting": "[4]", "result": "les bases diluées et l'éthanol"}]}
{"smiles": "CN(C)c1ccc(-c2nc(=O)n(CC(=O)c3ccc(O)c(O)c3)nc2-c2ccc(N(C)C)cc2)cc1", "note": "[ST 842, Oxo-3 (3,4 dihydroxyphénacyl)-2 di(paradiméthylaminophényl) 5-6 as triazine]", "values": [{"measurement": "LD50", "setting": "[1]; [6]", "result": "> 1000", "unit": "mg/kg"}, {"measurement": "Insoluble dans", "setting": "[4]", "result": "l'eau, le benzène, le chlorure de méthylène, l'éther"}, {"measurement": "Soluble dans", "setting": "[4]", "result": "les acides et les basés dilués et l'éthanol"}]}
{"smiles": "COc1ccc(-c2nc(=O)n(CC(=O)c3ccc(Br)cc3)nc2-c2ccc(OC)cc2)cc1", "note": "[ST 844, Oxo-3 (p-bromophénacyl)-2 di(paraméthoxyphényl) 5-6 as triazine]", "values": [{"measurement": "LD50", "setting": "[1]; [5]", "result": "~800", "unit": "mg/kg"}, {"measurement": "LD50", "setting": "[1]; [6]", "result": "> 2000", "unit": "mg/kg"}, {"measurement": "Insoluble dans", "setting": "[4]", "result": "l'eau, les acides et bases dilués"}, {"measurement": "Soluble dans", "setting": "[4]", "result": "l'éthanol, le benzène, le chlorure de méthylène, le chloroforme"}]}
{"smiles": "COc1ccc(-c2nc(=O)n(C(C(=O)c3ccccc3)c3ccccc3)nc2-c2ccc(OC)cc2)cc1", "note": "(stereo not drawn) [ST 908, Oxo-3 (α phénylacétophénone)-2 di (paraméthoxyphényl)-5-6 as triazine]", "values": [{"measurement": "LD50", "setting": "[1]; [5]", "result": "> 500", "unit": "mg/kg"}, {"measurement": "LD50", "setting": "[1]; [6]", "result": "> 1000", "unit": "mg/kg"}, {"measurement": "Insoluble dans", "setting": "[4]", "result": "l'eau, les acides et les bases dilués"}, {"measurement": "Soluble dans", "setting": "[4]", "result": "l'éthanol, le chlorure de méthylène, le chloroforme et l'éther"}]}
{"smiles": "CC(=O)Cn1nc(-c2ccc(N(C)C)cc2)c(-c2ccc(N(C)C)cc2)nc1=O", "note": "[ST 910, Oxo-3 acétonyl-2 di(paradiméthylaminophényl) 5-6 as triazine]", "values": [{"measurement": "LD50", "setting": "[1]; [6]", "result": "> 1500", "unit": "mg/kg"}, {"measurement": "ED50", "setting": "[2]", "result": 4, "unit": "mg/kg"}, {"measurement": "Insoluble dans", "setting": "[4]", "result": "l'eau et les bases diluées, le benzène et l'éther"}, {"measurement": "Soluble dans", "setting": "[4]", "result": "les acides dilués, l'éthanol, le chlorure de méthylène et le chloroforme"}]}
{"smiles": "CN(C)c1ccc(-c2nc(=O)n(C(C(=O)c3ccccc3)c3ccccc3)nc2-c2ccc(N(C)C)cc2)cc1", "note": "(stereo not drawn) [ST 911, Oxo-3 (α phénylacétophénone)-2 di(paradiméthylaminophényl) 5-6 as triazine]", "values": [{"measurement": "LD50", "setting": "[1]; [6]", "result": "> 1000", "unit": "mg/kg"}, {"measurement": "Insoluble dans", "setting": "[4]", "result": "l'eau, les bases diluées, l'éthanol et l'éther"}, {"measurement": "Soluble dans", "setting": "[4]", "result": "les acides dilués, le benzène, le chlorure de méthylène et le chloroforme"}]}
{"smiles": "CC(=O)CCCn1nc(-c2ccc(N(C)C)cc2)c(-c2ccc(N(C)C)cc2)nc1=O", "note": "[ST 924, Oxo-3 (δ propylméthylcétone)-2 di(p-diméthylaminophényl)-5-6 as triazine]", "values": [{"measurement": "LD50", "setting": "[1]; [6]", "result": "> 1500", "unit": "mg/kg"}, {"measurement": "ED50", "setting": "[2]", "result": 7, "unit": "mg/kg"}]}
{"smiles": "CCC(=O)CCn1nc(-c2ccc(N(C)C)cc2)c(-c2ccc(N(C)C)cc2)nc1=O", "note": "[ST 925, Oxo-3 ( δ diéthylcétone)-2 di(paradiméthyaminophényl) 5, 6 as triazine]", "values": [{"measurement": "LD50", "setting": "[1]; [5]", "result": "> 500", "unit": "mg/kg"}, {"measurement": "LD50", "setting": "[1]; [6]", "result": "> 1000", "unit": "mg/kg"}, {"measurement": "ED50", "setting": "[2]", "result": 5, "unit": "mg/kg"}, {"measurement": "Insoluble dans", "setting": "[4]", "result": "l'eau, les bases diluées et l'éther"}, {"measurement": "Soluble dans", "setting": "[4]", "result": "les acides dilués, l'éthanol, le benzène, le chlorure de méthylène et le chloroforme"}]}
{"smiles": "CCC(=O)CCn1nc(-c2ccc(OC)cc2)c(-c2ccc(OC)cc2)nc1=O", "note": "[ST 966, Oxo-3 (δ diéthylcétone)-2 di(paraméthoxyphényl)-5, 6 as triazine]", "values": [{"measurement": "LD50", "setting": "[1]; [6]", "result": "> 2000", "unit": "mg/kg"}, {"measurement": "Insoluble dans", "setting": "[4]", "result": "l'eau, les bases et les acides dilués et l'éther"}, {"measurement": "Soluble dans", "setting": "[4]", "result": "l'éthanol, le benzène, le chlorure de méthylène et le chloroforme"}]}
{"smiles": "O=C(OCC(O)CO)c1ccccc1Nc1ccnc2cc(Cl)ccc12", "note": "(stereo not shown) [glafénine, reference compound]", "values": [{"measurement": "ED50", "setting": "[2]", "result": "~40", "unit": "mg/kg"}]}
